Data reported in US20230107216A1, “PANTETHEINE DERIVATIVES AND USES THEREOF” (Comet Therapeutics, Inc., priority 2018, published 2023).
Read-outs that look alike come from different tables or passages of the source.

Columns and labels:
[1] = system: Peripheral blood mononuclear cells co-cultured with B-cells (BT system); test: cells; conditions: Homo sapiens, 72 h, read-out: % increase in sIL-6
[2] = system: Propionic Acidemia (PA) primary fibroblasts GM00371; test: Mitochondrial respiration, XFe96 Extracellular Flux Analyzer (OCR/ECAR), PA fibroblasts GM00371; format: cell-based; conditions: Homo sapiens, Fibroblast, read-out: Increase in Maximal Respiratory Capacity AUC
[3] = system: Bronchial epithelial cells co-cultured with dermal fibroblast (BF4T system); test: BioMAP BF4T system (TNFα and IL-4); format: cell-based, human; conditions: Homo sapiens, 24 h; 10 uM; procedure of Example 830; read-out: % increase in VCAM-1
[4] = system: Leigh Syndrome (LS) primary fibroblasts GM03672; test: NADP+/NADPH (NADP/NADPH-Glo), Leigh fibroblasts GM03672; format: cell-based; conditions: Homo sapiens, Fibroblast, 24h, read-out: Increase in Total NADP+ + NADPH
Description: Primary adherent fibroblasts were cultured in minimum essential medium (MEM) (Gibco, 25030081) supplemented with 2 mM L-Glutamine (Gibco, 25030081), 15% fetal bovine serum (FBS) (Gibco, 26400044) and 1% penicillin/streptomycin (Gibco, 5140122) at 37° C. and 5% CO2. Cells were collected for either passaging or experiment at ˜70-80% confluence. Cells were obtained by trypsinization and seeded in cell culture microplates either white plate (Thermo Fisher Scientific, 152028) for luminescent measurement or black plate (Thermo Fisher Scientific, 165305) for fluorescent based read out for different assays listed below. Cells were obtained by trypsinization and […] were seeded and allowed to adhere for 16-18 hours to have confluency around 70-80% in the cell well with culture media. After 24 hours prior to measurements (37° C., 5% CO2) media was changed to Dulbecco's Modified Eagle Medium (DMEM, Agilent Seahorse cat #103575-100) with the appropriate supplements as stated below.
Primary fibroblasts assayed were Propionic Acidemia (PA) (GM03590 Coriell Institute for Medical Research, Tsi 6337 Trans-Hit Bio), Methylmalonic Acidemia (MMA) (Tsi 5224 Trans-Hit Bio), Subnormal activation of pyruvate dehydrogenase complex (PDH) (GM01503 Coriell Institute for Medical Research), Very long-chain acyl-CoA dehydrogenase (VLCAD) (GM17475), Leigh Syndrome (LS) (GM03672, GM13411 Coriell Institute for Medical Research), Pyruvate Carboxylase Deficiency (PC) (GM00444 Coriell Institute for Medical Research). 10 μM of Compounds were added for 2 hours in PA, MMA lines and for 24h for the other fibroblast lines.
Assay was performed according to manufacturer instructions (NADP+/NADPH-Glo Assay Promega, G9082). Assay required a plate for total measurement of NADP+/NADPH and a plate for individual measurement of NADP+ or NADPH. For every assay a 12-point standard curve is prepared ranging from 400 nM to 0.625 nM. Media is removed and replaced with 50 μl of PBS for both assays.
For individual NADP+/NADPH measurements, 50 μl of 1% DTAB (Sigma, D5047) (cell lysis reagent) in 0.2N NaOH was added to the plates and 100 μl of lysate was split into two plates with 50 μl each from which ratio of NADP/NADPH can be calculated. 25 μl of 0.4N HCl were added to the NADP+ plates and both NADP+ and NADPH plates were heated at 60° C. for 15 minutes. The acid and heat treatment destroyed NADPH allowing individual NADP+ measurements while heating in basic conditions destroys NADP+ allowing individual NADPH measurement. After 15 minutes plates were allowed to come to room temperature and Trizma base (Sigma, T1699) was added to the NADP+ plates to neutralize the acid and HCl Trizma hydrochloride (Sigma, T2694) was added to the NADPH plates. The NADNADPH glo reagent was prepared by adding 125 μl of NAD cycling substrate, 125 μl of reductase, 125 μl of reductase substrate, 125 μl NAD cycling enzyme to a total of the 25 ml of NAD GLO reagent. 1:1 ratio of total volume of reagent was added to the individual NADP+, NADPH measurements (total 100 μl) and 50 μl were added for the total NAD/NADPH measurements. Luminescence was measured for 30-60 minutes within the linear range.
A total dead cell count was performed as described in Example 817 and only alive cells were used for analysis.

[5] = system: Peripheral blood mononuclear cells co-cultured with venular endothelial cells (HUVEC) (LPS system); test: BioMAP LPS system; format: cell-based, human; conditions: procedure of Example 827
[6] = system: Peripheral blood mononuclear cells co-cultured with B-cells (BT system); conditions: 1 uM; procedure of Example 829
[7] = system: Dermal fibroblasts (HDF3CGF system); test: BioMAP HDF3CGF system (IL-1β, TNFα, IFNγ, EGF, bFGF, PDGF-BB); format: cell-based, human; conditions: 10 uM; procedure of Example 833
[8] = system: Venular Endothelial cells (HUVEC) (4H system); test: BioMAP 4H system (IL-4 and histamine); format: cell-based, human; conditions: 1 uM, procedure of Example 826
[9] = system: primary fibroblasts (healthy controls and PA, MMA, BCKDK, PDH, VLCAD, LS, PC, GA, VLCFA, KSS, FXN, HD); test: Measurement of ROS (H2DCFDA) in primary fibroblasts; format: cell-based, human; conditions: Homo sapiens, Fibroblast; HD GM21756; procedure Example 812; Assay Condition C; read-out: Decreased ROS by at least 30%
Procedure, shortened: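 Patient and healthy-control primary fibroblasts switched to supplemented DMEM 24 h before assay, then treated with compound (10 μM) plus H2DCFDA (22 μM) for 2 h (PA, MMA lines) or 24 h (other lines). Kinetic fluorescence at 492/527 nm over 60 min; only live cells analysed.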

[10] = system: Methylmalonic Acidemia (MMA) primary fibroblasts GM01673; test: Mitochondrial respiration, XFe96 Extracellular Flux Analyzer (OCR/ECAR), MMA fibroblasts GM01673; format: cell-based; conditions: Homo sapiens, Fibroblast, assay condition A (10 mM glucose, 2 mM L-glutamine, 1 mM pyruvate, 10% FBS), 50 μM, read-out: Increase in Maximal Respiratory Capacity AUC
Description: The effect of the compounds of the present disclosure on mitochondrial respiration was measured with a XFe96 Extracellular Flux Analyzer (Seahorse Bioscience, Agilent Technologies) and Oxygen consumption Rate (OCR) and Extracellular acidification rate (ECAR) determined.
Cell culture and treatments. Primary adherent fibroblasts were cultured in minimum essential medium (MEM) (Gibco, 25030081) supplemented with 2 mM L-Glutamine (Gibco, 25030081), 15% fetal bovine serum (FBS) (Gibco, 26400044) and 1% penicillin/streptomycin (Gibco, 5140122) at 37° C. and 5% CO2. Cells were collected for either passaging or experiment at ˜70-80% confluence. Cells were obtained by trypsinization and seeded at 20000 cells/well in cell culture microplates (Seahorse Bioscience, 101085-004) and allowed to adhere for 16 hours in culture media.
By profiling different primary cells and/or optimizing their culture media or environmental components one can select cell lines and/or conditions that are appropriate for the biological or disease model. In the present example, 24 hours prior to OCR and ECAR profiling, media was changed to Dulbecco's Modified Eagle Medium (DMEM, Agilent Seahorse 103575-100) with the appropriate supplements for the different primary cells (10 mM glucose, 2 mM L-glutamine, 1 mM pyruvate, 10% FBS; 1 mM glucose, 2 mM L-glutamine, 1 mM pyruvate, 10% FBS; 10 mM glucose, 10% FBS; 5 mM glucose 10% FBS; 1 mM glucose 10% FBS). Cells used in this example were: Propionic Acidemia (PA) (GM00371, GM03590 Coriell Institute for Medical Research, Tsi 6337, Tsi 4626, Tsi 3618 Trans-Hit Bio), Methylmalonic Acidemia (MMA) (GM01673, Coriell Institute for Medical Research, Tsi 5224 Trans-Hit Bio), Branched chain ketoacid dehydrogenase kinase (BCKDK) (GM00612, GM00649 Coriell Institute for Medical Research), Subnormal activation of pyruvate dehydrogenase complex (PDH) (GM01503 Coriell Institute for Medical Research), Very long-chain acyl-CoA dehydrogenase (VLCAD) (GM17475), Leigh Syndrome (LS) (GM03672, GM13411 Coriell Institute for Medical Research), Pyruvate Carboxylase Deficiency (PC) (GM00444 Coriell Institute for Medical Research), Glutaric Acidemia-I (GA) (GM10653), Friedreich's Ataxia (FXN) (GM04078 Coriell Institute for Medical Research, Huntington's disease (HD) (GM21756 Coriell Institute for Medical Research), Ornithine Transcarbamylase Deficiency (OTC) (GM12756 Coriell Institute for Medical Research), Kearns-Sayre Syndrome (KSS) (GM06225 Coriell Institute for Medical Research).
One hour before the assay, the cells were washed with freshly prepared unbuffered serum free-Seahorse XF Assay medium (Seahorse Bioscience, North America, USA, 103575-100) with the same supplements as for the previous 24 hour incubation.
After baseline measurements of OCR, cells were challenged with compounds of the present disclosure at different concentrations (10 to 50 μM) or vehicle (DMSO, 0.1%) and a post-compound baseline was recorded. OCR was measured after sequentially adding to each well 1 μg/ml oligomycin (inhibitor of ATP synthase Sigma-Aldrich, 753531), then maximal OCR was determined with carbonyl cyanide 4-(trifluoromethoxy) phenylhydrazone (FCCP, Sigma-Aldrich, C2920), (uncoupler of oxidative phosphorylation) and 0.5 μM of rotenone (Sigma-Aldrich, R8875) plus antimycin A (Sigma-Aldrich, A8674) (inhibitors of mitochondrial complex I and III) for determination of rotenone-antimycin insensitive respiration together with Hoechst for nuclear staining in situ when normalized to cell counts. After the analysis and nuclear staining, the XFp microplate was transferred to the Cytation 5, and the nuclear images were captured, the individual nuclei were identified and counted by BioTek Gen5 software. Data were expressed as pmol of O2 per minute and normalized by nuclear staining and baselined to pre-compound addition.
Assay conditions were as stated below.
Assay specifics on assay conditions are indicated below when readouts were normalized to cell counts. […]

[11] = system: primary fibroblasts GM00649, GM06225, GM00612, GM00444, GM03672; test: MMP, ROS and ATP multiplex (ArrayScan); format: cell-based; conditions: Homo sapiens, Fibroblast; Leigh GM03672; procedure Example 838; 50 μM (table line r25); read-out: Decreased ROS by at least 10%
Description: Cell culture and treatments. Primary adherent fibroblasts were cultured in minimum essential medium (MEM) (Gibco, 25030081) supplemented with 2 mM L-Glutamine (Gibco, 25030081), 15% fetal bovine serum (FBS) (Gibco, 26400044) and 1% penicillin/streptomycin (Gibco, 5140122) at 37° C. and 5% CO2. Cells were collected for either passaging or experiment at ˜70-80% confluence. Cells were obtained by trypsinization and seeded at 10000 cells/well in cell culture microplates (Seahorse Bioscience, 101085-004) and allowed to adhere for 16 hours in culture media. After media was refreshed with DMEM (Agilent Seahorse 103575-100) supplemented with 1 mM glucose and 10% FBS (Gibco, 26400044). At the end of the incubation period, the cells were loaded with the relevant dye/antibody for each cell health marker. The assay provided simultaneous measurement of cell health parameters including cell count, ROS formation (DHE), mitochondrial membrane potential (MitoTracker®) and cellular ATP content (CellTiter-Glo®, Promega). The plates were then scanned using an automated fluorescent cellular imager, ArrayScan® (Thermo Scientific Cellomics). Assay conditions were optimized by one skilled in the art.
Primary cells used in this example were obtained from Coriell Institute for Medical Research and consisted of GM00649, MSUD (Maple Syrup Urine Disease) Tyle IA; GM06225, Kearns-Sayre Syndrome; GM00612, MSUD (Maple Syrup Urine Disease) Tyle II GM00444, Pyruvate Carboxylase Deficiency and GM03672, Leigh Syndrome.

`CC(C)(CO)[C@@H](O)C(=O)NCCC(=O)NCCSC(CC(=O)O)C(=O)O` (stereo partly drawn) [Compound 46, 2-[(2-[3-[(2R)-2,4-dihydroxy-3,3-dimethylbutanamido]propanamido]ethyl)sulfanyl]butanedioic acid] was tested, and the activation at 10 µM [1] was ≥ 10%, the activation at 50 µM ([2]; assay condition C (10 mM glucose, 10% FBS), 50 μM) was ≥ 10% and the activation at 10 µM [3] was ≥ 10%. The activation at 10 µM ([4]; Leigh GM03672 P8, assay condition B (1 mM glucose, 2 mM L-glutamine, 1 mM pyruvate, 10% FBS)) was ≥ 10%, the “% increase in sPGE2” value ([5]; 1 uM) was ≥10% and the activation at 10 µM ([5]; Homo sapiens, HUVEC, 24 h, 10 uM, read-out: % increase in sTNFα) was ≥ 10%. For the same compound, the “% decrease in B-cell proliferation” value [6] was ≥20%, the “% decrease in sIL-2” value [6] was ≥20% and the “% decrease in sTNFα” value [6] was ≥20%. The “% decrease in Collagen I” value [7] was ≥10%, the “% increase in E-Selectin” value [8] was ≥10% and the inhibition at 1 µM ([8]; Homo sapiens, HUVEC, 24 h, read-out: % decrease in E-Selectin) was ≥ 10%.

For `CCC(=O)SCCNC(=O)CCNC(=O)[C@H](O)C(C)(C)CO` [Compound 398, (2R)-2,4-dihydroxy-3,3-dimethyl-N-(2-[[2-(propanoylsulfanyl)ethyl]carbamoyl]ethyl)butanamide], the activation at 10 µM ([2]; assay condition D (1 mM glucose, 10% FBS), 10 μM) was ≥ 10%, the activation at 10 µM ([4]; Leigh GM03672 P9, assay condition A (10 mM glucose, 2 mM L-glutamine, 1 mM pyruvate, 10% FBS)) was ≥ 10% and the inhibition at 10 µM [9] was ≥ 30%.

`CCOC(=O)C(=O)SCCNC(=O)CCNC(=O)[C@H](O)C(C)(C)COP(=O)(O)O` [Compound 61] was tested, and the activation at 50 µM [10] was ≥ 10% and the inhibition at 50 µM [11] was ≥ 10%.
